The values that follow are results of earlier work, collected in paper PMC10458307, “New Scaffolds of Proteasome Inhibitors: Boosting Anticancer Potential by Exploiting the Synergy of In Silico and In Vitro Methodologies” (Pharmaceuticals, 2023).

Peptide text beside a SMILES is read from it. * marks the point of attachment. Cbz = O=C(OCc1ccccc1)*

For one data set, the system named is proteasome CT-L active site. Particulars: literature values of known proteasome inhibitors; reference per compound; cited from earlier work.
Take `O=c1cc(-c2ccc(O)cc2)oc2cc(O)cc(O)c12` [Apigenin]: the concentration for half-maximal inhibition (IC50) (commonly the concentration needed to halve the response being measured) is 1800 nM.

`CCCCCCCCC[C@@H](O)CC(=O)N[C@@H](CC(N)=O)C(=O)N[C@@H](CCC(N)=O)C(=O)N[C@H](C=O)CC(C)C` [Fellutamide B]: the IC50 is 9.4 nM.

On to `O=c1c(O)c(-c2ccc(O)cc2)oc2cc(O)cc(O)c12` [Kaempferol], for which the IC50 was 10500 nM.

Regarding `O=c1c(O)c(-c2ccc(O)c(O)c2)oc2cc(O)cc(O)c12` [Quercetin], the IC50 is 3500 nM.

With `CC(C)C[C@@H](C=O)NC(=O)[C@H](CC(C)C)NC(=O)[C@H](CC(C)C)NC(=O)OCc1ccccc1` [MG-132] (Cbz-Leu-Leu-Leu-aldehyde), the IC50 is 40 nM.

For `C/C=C\NC(=O)[C@H]1NC(=O)[C@H](CC(N)=O)NC(=O)[C@@H](NC(=O)C(=O)[C@@H](C)CC)Cc2ccc(O)c(c2)-c2cccc3c2NC(=O)[C@@]3(O)[C@@H]1O` [TMC-95A], the IC50 is 5.4 nM.

Regarding `Oc1cc(O)c2cc(O)c(-c3ccc(O)c(O)c3)[o+]c2c1` [Cyanidin], the IC50 is 18400 nM.

On to `Oc1cc(O)c2cc(O)c(-c3cc(O)c(O)c(O)c3)[o+]c2c1` [Delphinidin], for which the IC50 is 32400 nM.

Turning to `COc1cc(-c2[o+]c3cc(O)cc(O)c3cc2O)cc(OC)c1O` [Malvidin], the IC50 is 32000 nM.

With `CC[C@H](C)[C@H](NC(=O)[C@H]([C@@H](C)CC)N(C)C(C)=O)C(=O)N[C@H](C(=O)N[C@@H](CC(C)C)C(=O)[C@@]1(C)CO1)[C@@H](C)O` [Epoxomicin], the IC50 was 47 nM.

A further data set relates to proteasome C-L active site. Particulars: literature values; ref 34 (bortezomib), 35 (ixazomib); cited from earlier work.
As to `CC(C)C[C@H](NC(=O)CNC(=O)c1cc(Cl)ccc1Cl)B(O)O` [Ixazomib, ixazomib], the IC50 is 31 nM.

Another data set concerns proteasome T-L activity. Further details: method as in PMID 16286248. The following applies: literature value; cited from earlier work.
For `C[C@@]12OC(=O)[C@]1([C@@H](O)[C@@H]1C=CCCC1)NC(=O)[C@@H]2CCCl` [Marizomib, marizomib], the IC50 is 28 nM.
